Experimental data reported in patent publication US10106516B2, “PDE10 inhibitors and related compositions and methods” (Omeros Corporation, priority 2010, dated 2018).
pIC50: −log10 of the molar value.

Biological target: T1, PDE10 (Homo sapiens, UniProt Q9Y233)
T1 construct: made in house; host or cells: Sf9 insect cells (baculovirus)
Test: PDE10 biochemical assay (two-step Thompson and Appleman method or SPA)
Conditions: PDE10 inhibition
Method: In short, cAMP is spiked with (^3H)cAMP and incubated with PDE10 and various concentrations of a compound of structure (I). After the appropriate incubation time, the reaction is terminated by heating. The mixture is then subjected to treatment with snake venom phosphatase. The phosphatase hydrolyzes any AMP in the mixture, but leaves unreacted cAMP intact. Thus, by separating cAMP from the mixture and determining its concentration (by radiography), the percent of inhibition can be determined. IC50 values can be calculated by performing the experiment at several concentrations using standard graphical means. A detailed description of the actual technique used for IC50 assays as set forth in following Examples.
The phosphodiesterase (PDE) assay was performed using recombinant human PDE 1A3, 2A3, 3 catalytic region, 4 catalytic region, 5 catalytic region, 7A, 8A, 9A2, 10A1 and 11A1 enzymes expressed in a baculoviral system using Sf9 cells. PDE activity was measured using a modification of the two-step method of Thompson and Appleman described above which was adapted for 96 well plate format. […] The final assay volume was 110 μl with assay buffer (10 mM MgCl2; 40 mM Tris.HCl; pH 7.4). Reactions were initiated with enzyme and incubated with (^3H)-substrate and substance for 20 minutes at 30° C. The reaction was terminated by denaturing the enzyme (heating the reaction to 70° C. for 2 minutes). The reaction was then cooled at 4° C. for 10 minutes before the addition of snake venom (Crotalus atrox, 0.2 mg/ml) for 10 minutes at 30° C., thus allowing non-specific hydrolysis of the tritiated substrate. Separation of the remaining unhydrolysed cyclic nucleotide was achieved by a batch binding of the mixture to activated Dowex (200 μl) anion exchange resin. The anion exchange resin bound the charged nucleotides, leaving only hydrolysed (^3H) substrate in the soluble fraction. The soluble fraction (50 μl) was then added to microscint-20 (200 μl) and counted on a Top Count Plate reader. Radioactivity units were plotted against inhibitor concentration and IC50 values obtained using Graph Pad Prism software.
Alternatively, phosphodiesterase activity was measured by scintillation proximity assay (SPA) with [^3H]-cGMP as substrate. Purified PDE10 was diluted and stored in 25 mM Tris-Cl (pH 8.0)/100 mM NaCl/0.05% Tween 20/50% glycerol/3 mM DTT. Assays contained (final concentrations): 50 mM Tris-Cl (pH 7.5)/8.3 mM MgCl2/1.7 mM EGTA/0.5 mg/ml BSA/5% DMSO and 2 ng PDE10 in a final volume of 0.1 mL. Inhibition was evaluated at 8 concentrations in duplicate. Reactions were initiated by addition of enzyme and were terminated after 20 minutes at 30° C. by the addition of 50 μl of SPA beads containing Zn^++. The mixture was shaken, allowed to settle for 3 hours, and counted in a Wallac plate counter. Results (net cpm) were fitted to a four parameter logistic model using Excel Solver®.

T1 sequence (Q9Y233 1-779 isoform Q9Y233-1): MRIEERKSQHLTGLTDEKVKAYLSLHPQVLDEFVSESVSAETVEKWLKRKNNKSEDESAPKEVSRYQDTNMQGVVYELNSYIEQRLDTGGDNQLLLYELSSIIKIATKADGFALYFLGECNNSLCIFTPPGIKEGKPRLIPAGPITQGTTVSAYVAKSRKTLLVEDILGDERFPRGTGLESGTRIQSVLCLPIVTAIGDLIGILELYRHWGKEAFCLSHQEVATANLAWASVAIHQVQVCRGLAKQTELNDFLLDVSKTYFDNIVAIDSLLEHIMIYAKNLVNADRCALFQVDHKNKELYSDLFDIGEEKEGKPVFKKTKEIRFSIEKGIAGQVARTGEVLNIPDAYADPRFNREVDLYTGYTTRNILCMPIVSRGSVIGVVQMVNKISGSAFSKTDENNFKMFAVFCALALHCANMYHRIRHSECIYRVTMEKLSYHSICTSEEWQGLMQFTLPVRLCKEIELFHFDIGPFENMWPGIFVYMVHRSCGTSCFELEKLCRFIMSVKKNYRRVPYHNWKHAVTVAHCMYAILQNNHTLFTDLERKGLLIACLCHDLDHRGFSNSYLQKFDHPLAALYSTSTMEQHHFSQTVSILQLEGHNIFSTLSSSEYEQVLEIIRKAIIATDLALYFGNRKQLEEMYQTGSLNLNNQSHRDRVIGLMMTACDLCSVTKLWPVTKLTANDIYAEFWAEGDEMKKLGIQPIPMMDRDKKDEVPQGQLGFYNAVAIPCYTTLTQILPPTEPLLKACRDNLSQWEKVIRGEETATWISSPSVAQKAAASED

Structure (SMILES)	pIC50
COc1cc(-c2ccc(C(=O)C(OC)c3ccc(N4CCOCC4)cc3)o2)cc(OC)c1OC (centres unmarked) [Compound 65-7]	≥ 6.00
COc1cc(-c2ccc(C(=O)C(OC)c3ccc(-c4nnc(C5CC5)o4)cc3)o2)cc(OC)c1OC (centres unmarked) [Compound 60-1, 2-(4-(5-Cyclopropyl-1,3,4-Oxadiazol-2-Yl)Phenyl)-2-Methoxy-1-(5-(3,4,5-Trimethoxyphenyl)Furan-2-Yl)Ethanone]	≥ 6.00
COc1cc(-c2csc(C(=O)C(OC)c3ccc(-n4cccn4)cc3)n2)cc(OC)c1Br (centres unmarked) [Compound 3-1, 2-(4-(1H-Pyrazol-1-Yl)Phenyl)-1-(4-(4-Bromo-3,5-Dimethoxyphenyl)Thiazol-2-Yl)-2-Methoxyethanone]	≥ 6.00
COc1cc(-c2nc(C(=O)C(OC)c3ccc(N4CCOCC4)cc3)oc2C)cc(OC)c1Br (centres unmarked) [Compound 55-1, 1-(4-(4-Bromo-3,5-Dimethoxyphenyl)-5-Methyloxazol-2-Yl)-2-Methoxy-2-(4-Morpholinophenyl)Ethanone]	≥ 6.00
COc1cc(-c2ccc(C(=O)C(OC)c3ccc4c(c3)nnn4C)o2)cc(OC)c1Br (centres unmarked) [Compound 25-1, 1-(5-(4-Bromo-3,5-Dimethoxyphenyl)Furan-2-Yl)-2-Methoxy-2-(1-Methyl-1H-Benzo[D][1,2,3]Triazol-5-Yl)Ethanone]	≥ 6.00
COc1cc(-c2ccc(C(=O)C(OC)c3ccc(N4CCCCC4)nc3)o2)cc(OC)c1Br (centres unmarked) [Compound 23-1, 1-(5-(4-Bromo-3,5-Dimethoxyphenyl)Furan-2-Yl)-2-Methoxy-2-(6-(Piperidin-1-Yl)Pyridin-3-Yl)Ethanone]	≥ 6.00
CCOC(C(=O)c1ccc(-c2cc(OC)c(Br)c(OC)c2)o1)c1ccc(N2CCOCC2)cc1 (centres unmarked) [Compound 38-1, 1-(5-(4-Bromo-3,5-Dimethoxyphenyl)Furan-2-Yl)-2-Ethoxy-2-(4-Morpholinophenyl)Ethanone]	≥ 6.00
COc1cc(-c2cn(C)c(C(=O)C(OC)c3ccc(N4CCOCC4)cc3)n2)cc(OC)c1Br (centres unmarked) [Compound 4-1, 1-(4-(4-Bromo-3,5-Dimethoxyphenyl)-1-Methyl-1H-Imidazol-2-Yl)-2-Methoxy-2-(4-Morpholinophenyl)Ethanone]	≥ 6.00
CCOC(C(=O)c1ccc(-c2cc(OC)c(OC)c(OC)c2)o1)c1ccc(-c2nnc(C)o2)cc1 (centres unmarked) [Compound 46-1, 2-Ethoxy-2-(4-(5-Methyl-1,3,4-Oxadiazol-2-Yl)Phenyl)-1-(5-(3,4,5-Trimethoxyphenyl)Furan-2-Yl)Ethanone]	≥ 6.00
COc1cc(-c2ccc(C(=O)C(OC)c3cccc4ncccc34)o2)cc(OC)c1Br (centres unmarked) [Compound 20-1, 1-(5-(4-Bromo-3,5-Dimethoxyphenyl)Furan-2-Yl)-2-Methoxy-2-(Quinolin-5-Yl)Ethanone]	≥ 6.00
CCOC(C(=O)c1ccc(-c2cc(OC)c(F)c(OC)c2)o1)c1ccc(-c2nnc(C)o2)cc1 (centres unmarked) [Compound 65-13]	≥ 6.00
COc1ccc(-c2ccn(C(=O)C(OC)c3ccc(F)cc3)n2)cc1OC (centres unmarked) [Compound 51-1, 1-(3-(3,4-Dimethoxyphenyl)-1H-Pyrazol-1-Yl)-2-(4-Fluorophenyl)-2-Methoxyethanone]	≥ 6.00
COc1cc(-c2ccc(C(=O)C(OC)c3ccc(-c4nnc(C)o4)cc3)o2)cc(OC)c1C (centres unmarked) [Compound 21-1, 1-(5-(3,5-Dimethoxy-4-Methylphenyl)Furan-2-Yl)-2-Methoxy-2-(4-(5-Methyl-1,3,4-Oxadiazol-2-Yl)Phenyl)Ethanone]	≥ 6.00
COc1cc(-c2cnc(C(=O)C(OC)c3ccc(N4CCOCC4)cc3)o2)cc(OC)c1Br (centres unmarked) [Compound 56-1, 1-(5-(4-Bromo-3,5-Dimethoxyphenyl)Oxazol-2-Yl)-2-Methoxy-2-(4-Morpholinophenyl)Ethanone]	≥ 6.00
COc1cc(-c2ccc(C(=O)C(OC)c3ccc(-c4ccc(C)o4)cc3)o2)cc(OC)c1Br (centres unmarked) [Compound 16-1, 1-(5-(4-Bromo-3,5-Dimethoxyphenyl)Furan-2-Yl)-2-Methoxy-2-(4-(5-Methylfuran-2-Yl)Phenyl)Ethanone]	≥ 6.00
COc1cc(-c2ccc(C(=O)C(OC)c3ccc(-n4cccn4)cc3)o2)cc(OC)c1OC (centres unmarked) [Compound 65-9]	≥ 6.00

Structure (SMILES)	pIC50
COc1cc(-c2coc(C(=O)C(OC)c3cnc4ccccc4c3)n2)cc(OC)c1Br (centres unmarked) [Compound 10-1, 1-(4-(4-Bromo-3,5-Dimethoxyphenyl)Oxazol-2-Yl)-2-Methoxy-2-(Quinolin-3-Yl)Ethanone]	≥ 6.00
COc1cc(-c2ccc(C(=O)C(OC)c3ccc(-n4cncn4)cc3)o2)cc(OC)c1Br (centres unmarked) [Compound 32-1, 2-(4-(1H-1,2,4-Triazol-1-Yl)Phenyl)-1-(5-(4-Bromo-3,5-Dimethoxyphenyl)Furan-2-Yl)-2-Methoxyethanone]	≥ 6.00
COc1cc(-c2ccc(C(=O)C(OC)c3ccc(-n4nccn4)cc3)o2)cc(OC)c1Br (centres unmarked) [Compound 30-1, 2-(4-(2H-1,2,3-Triazol-2-Yl)Phenyl)-1-(5-(4-Bromo-3,5-Dimethoxyphenyl)Furan-2-Yl)-2-Methoxyethanone]	≥ 6.00
COc1cc(-c2ccc(C(=O)C(OC)c3ccc(N4CCOCC4)cc3)s2)cc(OC)c1Br (centres unmarked) [Compound 59-1, 1-(5-(4-Bromo-3,5-Dimethoxyphenyl)Thiophen-2-Yl)-2-Methoxy-2-(4-Morpholinophenyl)Ethanone]	≥ 6.00
COc1cc(-c2coc(C(=O)C(OC)c3cccc4ncccc34)n2)cc(OC)c1Br (centres unmarked) [Compound 9-1, 1-(4-(4-Bromo-3,5-Dimethoxyphenyl)Oxazol-2-Yl)-2-Methoxy-2-(Quinolin-5-Yl)Ethanone]	≥ 6.00
COc1cc(-c2ccc(C(=O)C(OC)c3ccc(N4CCCS4(=O)=O)cc3)o2)cc(OC)c1Br (centres unmarked) [Compound 19-1, 1-(5-(4-Bromo-3,5-Dimethoxyphenyl)Furan-2-Yl)-2-(4-(1,1-Dioxidoisothiazolidin-2-Yl)Phenyl)-2-Methoxyethanone]	≥ 6.00
COc1cc(-c2ccc(C(=O)C(OCC3CC3)c3ccc(N4CCOCC4)cc3)o2)cc(OC)c1Br (centres unmarked) [Compound 41-1, 1-(5-(4-Bromo-3,5-Dimethoxyphenyl)Furan-2-Yl)-2-(Cyclopropylmethoxy)-2-(4-Morpholinophenyl)Ethanone]	≥ 6.00
COc1cc(-c2ccc(C(=O)C(OC)c3ccc(-c4cn[nH]c4)cc3)o2)cc(OC)c1Br (centres unmarked) [Compound 15-1, 2-(4-(1H-Pyrazol-4-Yl)Phenyl)-1-(5-(4-Bromo-3,5-Dimethoxyphenyl)Furan-2-Yl)-2-Methoxyethanone]	≥ 6.00
COc1cc(-c2ccc(C(=O)C(OC)c3ccc(-n4cccn4)cc3)o2)cc(OC)c1Br (centres unmarked) [Compound 14-1, 2-(4-(1H-Pyrazol-1-Yl)Phenyl)-1-(5-(4-Bromo-3,5-Dimethoxyphenyl)Furan-2-Yl)-2-Methoxyethanone]	≥ 6.00
COc1cc(-c2ccc(C(=O)C(OC)c3ccc(-c4cccnc4)cc3)o2)cc(OC)c1Br (centres unmarked) [Compound 37-1, 1-(5-(4-Bromo-3,5-Dimethoxyphenyl)Furan-2-Yl)-2-Methoxy-2-(4-(Pyridin-3-Yl)Phenyl)Ethanone]	≥ 6.00
COc1cc(-c2ccc(C(=O)C(OC)c3ccc(CN4CCOCC4)cc3)o2)cc(OC)c1Br (centres unmarked) [Compound 26-1, 1-(5-(4-Bromo-3,5-Dimethoxyphenyl)Furan-2-Yl)-2-Methoxy-2-(4-(Morpholinomethyl)Phenyl)Ethanone]	≥ 6.00
COc1cc(-c2coc(C(=O)C(OC)c3ccc(N4CCCC4)cc3)n2)cc(OC)c1Br (centres unmarked) [Compound 7-1, 1-(4-(4-Bromo-3,5-Dimethoxyphenyl)Oxazol-2-Yl)-2-Methoxy-2-(4-(Pyrrolidin-1-Yl)Phenyl)Ethanone]	≥ 6.00
COc1cc(-c2ccc(C(=O)C(OC)c3ccc(-n4ccnn4)cc3)o2)cc(OC)c1Br (centres unmarked) [Compound 31-1, 2-(4-(1H-1,2,3-Triazol-1-Yl)Phenyl)-1-(5-(4-Bromo-3,5-Dimethoxyphenyl)Furan-2-Yl)-2-Methoxyethanone]	≥ 6.00
COc1cc(-c2coc(C(=O)C(OC)c3ccc(-n4ccnn4)cc3)n2)cc(OC)c1Br (centres unmarked) [Compound 65-4]	≥ 6.00
COc1ccc(-c2ccn(C(=O)C(OC)c3ccc(N4CCOCC4)cc3)n2)cc1OC (centres unmarked) [Compound 53-1, 1-(3-(3,4-Dimethoxyphenyl)-1H-Pyrazol-1-Yl)-2-Methoxy-2-(4-Morpholinophenyl)Ethanone]	≥ 6.00
COc1cc(-c2ccc(C(=O)C(OC)c3ccc(-c4nnc(C)o4)cc3)o2)cc(C#N)c1OC (centres unmarked) [Compound 17-1, 2,3-Dimethoxy-5-(5-(2-Methoxy-2-(4-(5-Methyl-1,3,4-Oxadiazol-2-Yl)Phenyl)Acetyl)Furan-2-Yl)Benzonitrile]	≥ 6.00
